The record followed here is ChEMBL document CHEMBL1201862, “PubChem BioAssay data set” (2004).

Structures are written as SMILES. Active and inactive are the calls of the source. How the calls were made is not given here.

Type in all cases: functional
Assay [1] addresses Serine/threonine-protein kinase PAK 1 (Homo sapiens, UniProt Q13153).
Assay [2] concerns the target Serine/threonine-protein kinase PLK1 (Homo sapiens, UniProt P53350).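 Further: PLK1 measured as one member of a kinome-wide profiling panel.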
For assay [3], the target named is Tyrosine-protein kinase JAK2 (Homo sapiens, UniProt O60674).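 Further: JAK2 tested as one member of a kinase panel.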
In assay [4] the target is Serine/threonine-protein kinase BRSK1 (Homo sapiens, UniProt Q8TDC3).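 Further: measured within a kinome-wide kinase panel, with the target listed as KIAA1811.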
The target of assay [5] is 3-phosphoinositide-dependent protein kinase 1 (Homo sapiens, UniProt O15530).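 Further: value comes from the Navigating the Kinome panel, PDPK1 member.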
The target of assay [6] is Calcium/calmodulin-dependent protein kinase type II subunit beta (Homo sapiens, UniProt Q13554).
Chain of Calcium/calmodulin-dependent protein kinase type II subunit beta (Q13554 whole entry): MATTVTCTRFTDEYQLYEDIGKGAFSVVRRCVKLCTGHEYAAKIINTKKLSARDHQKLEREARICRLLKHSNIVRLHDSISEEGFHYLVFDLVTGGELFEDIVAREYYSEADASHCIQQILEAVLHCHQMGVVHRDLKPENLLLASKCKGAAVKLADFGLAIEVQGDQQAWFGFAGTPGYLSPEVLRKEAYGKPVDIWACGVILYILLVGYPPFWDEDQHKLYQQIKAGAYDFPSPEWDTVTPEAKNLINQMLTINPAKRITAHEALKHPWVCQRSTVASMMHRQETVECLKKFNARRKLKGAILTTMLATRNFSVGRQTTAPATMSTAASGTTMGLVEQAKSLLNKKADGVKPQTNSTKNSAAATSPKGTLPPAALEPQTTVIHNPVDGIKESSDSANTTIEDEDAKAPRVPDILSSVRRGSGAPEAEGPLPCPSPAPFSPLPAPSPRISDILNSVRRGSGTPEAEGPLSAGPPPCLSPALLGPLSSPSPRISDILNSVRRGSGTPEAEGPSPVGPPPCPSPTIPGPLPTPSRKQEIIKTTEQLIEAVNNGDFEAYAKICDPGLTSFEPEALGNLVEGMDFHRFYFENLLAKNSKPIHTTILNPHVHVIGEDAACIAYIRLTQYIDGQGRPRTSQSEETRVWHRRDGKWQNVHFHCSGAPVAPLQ

Chain of Tyrosine-protein kinase JAK2 (O60674 whole entry): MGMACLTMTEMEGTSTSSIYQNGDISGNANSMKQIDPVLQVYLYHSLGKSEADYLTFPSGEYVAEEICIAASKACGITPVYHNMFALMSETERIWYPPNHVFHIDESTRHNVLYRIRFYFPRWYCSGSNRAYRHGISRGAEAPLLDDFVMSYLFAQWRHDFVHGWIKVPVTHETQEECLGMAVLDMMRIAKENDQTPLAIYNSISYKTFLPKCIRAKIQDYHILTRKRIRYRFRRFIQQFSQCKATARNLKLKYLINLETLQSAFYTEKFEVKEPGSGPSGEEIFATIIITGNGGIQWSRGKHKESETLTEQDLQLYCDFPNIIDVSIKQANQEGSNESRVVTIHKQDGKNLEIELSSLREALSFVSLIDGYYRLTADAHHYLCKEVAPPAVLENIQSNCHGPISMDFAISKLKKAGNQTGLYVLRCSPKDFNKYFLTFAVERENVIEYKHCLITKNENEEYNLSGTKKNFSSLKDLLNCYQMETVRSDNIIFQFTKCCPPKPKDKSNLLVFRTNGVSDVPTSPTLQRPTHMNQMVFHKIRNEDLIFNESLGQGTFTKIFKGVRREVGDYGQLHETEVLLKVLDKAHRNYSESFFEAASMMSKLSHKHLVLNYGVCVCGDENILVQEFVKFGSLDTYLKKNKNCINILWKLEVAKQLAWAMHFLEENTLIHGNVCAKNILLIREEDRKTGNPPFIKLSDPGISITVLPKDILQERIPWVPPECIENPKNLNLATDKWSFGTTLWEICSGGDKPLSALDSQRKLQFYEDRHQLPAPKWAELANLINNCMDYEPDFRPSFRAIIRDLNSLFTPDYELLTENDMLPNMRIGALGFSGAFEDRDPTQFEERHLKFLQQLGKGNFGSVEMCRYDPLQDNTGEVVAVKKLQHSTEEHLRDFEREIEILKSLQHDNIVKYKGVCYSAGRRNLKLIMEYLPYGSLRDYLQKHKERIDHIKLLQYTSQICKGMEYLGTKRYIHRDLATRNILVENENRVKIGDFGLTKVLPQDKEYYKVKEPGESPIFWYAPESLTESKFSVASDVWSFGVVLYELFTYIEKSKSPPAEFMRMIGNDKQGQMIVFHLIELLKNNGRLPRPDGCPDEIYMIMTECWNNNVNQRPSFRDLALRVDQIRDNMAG
Chain of Serine/threonine-protein kinase PLK1 (P53350 whole entry): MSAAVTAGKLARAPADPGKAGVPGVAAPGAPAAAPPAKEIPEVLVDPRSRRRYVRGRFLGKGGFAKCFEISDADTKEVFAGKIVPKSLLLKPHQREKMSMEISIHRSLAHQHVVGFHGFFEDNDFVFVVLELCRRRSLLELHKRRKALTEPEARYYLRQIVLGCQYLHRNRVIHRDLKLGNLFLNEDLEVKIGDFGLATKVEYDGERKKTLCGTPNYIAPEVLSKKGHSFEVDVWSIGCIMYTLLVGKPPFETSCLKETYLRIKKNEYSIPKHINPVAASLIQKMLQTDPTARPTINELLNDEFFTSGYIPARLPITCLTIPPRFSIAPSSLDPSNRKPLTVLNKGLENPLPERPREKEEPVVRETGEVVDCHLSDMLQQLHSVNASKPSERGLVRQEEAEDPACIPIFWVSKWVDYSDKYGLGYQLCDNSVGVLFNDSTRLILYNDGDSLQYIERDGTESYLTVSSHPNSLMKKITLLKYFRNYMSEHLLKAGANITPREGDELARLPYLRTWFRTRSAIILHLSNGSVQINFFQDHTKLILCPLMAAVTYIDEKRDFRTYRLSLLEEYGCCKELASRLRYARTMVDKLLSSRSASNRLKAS
Chain of Serine/threonine-protein kinase BRSK1 (Q8TDC3 whole entry): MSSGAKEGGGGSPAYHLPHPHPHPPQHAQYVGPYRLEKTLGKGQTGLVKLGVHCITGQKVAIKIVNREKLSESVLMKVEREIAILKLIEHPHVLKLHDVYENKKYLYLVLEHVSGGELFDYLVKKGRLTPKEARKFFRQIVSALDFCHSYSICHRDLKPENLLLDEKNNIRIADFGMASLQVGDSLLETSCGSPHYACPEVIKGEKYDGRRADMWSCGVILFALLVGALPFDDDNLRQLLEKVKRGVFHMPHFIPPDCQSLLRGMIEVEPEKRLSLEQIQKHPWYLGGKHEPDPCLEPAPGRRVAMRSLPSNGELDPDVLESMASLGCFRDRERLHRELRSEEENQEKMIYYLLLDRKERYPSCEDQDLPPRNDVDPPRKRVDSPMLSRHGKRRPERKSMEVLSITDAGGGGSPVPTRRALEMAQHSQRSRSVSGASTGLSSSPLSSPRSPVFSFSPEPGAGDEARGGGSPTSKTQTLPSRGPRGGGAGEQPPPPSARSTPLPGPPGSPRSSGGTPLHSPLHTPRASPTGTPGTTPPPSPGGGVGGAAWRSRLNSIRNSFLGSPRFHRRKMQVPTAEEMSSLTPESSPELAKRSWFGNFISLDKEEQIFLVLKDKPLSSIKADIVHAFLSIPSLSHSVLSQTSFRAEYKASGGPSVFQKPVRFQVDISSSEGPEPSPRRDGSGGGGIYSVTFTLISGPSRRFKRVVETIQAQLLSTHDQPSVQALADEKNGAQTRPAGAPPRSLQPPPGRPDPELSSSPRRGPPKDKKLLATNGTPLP
Chain of 3-phosphoinositide-dependent protein kinase 1 (O15530 whole entry): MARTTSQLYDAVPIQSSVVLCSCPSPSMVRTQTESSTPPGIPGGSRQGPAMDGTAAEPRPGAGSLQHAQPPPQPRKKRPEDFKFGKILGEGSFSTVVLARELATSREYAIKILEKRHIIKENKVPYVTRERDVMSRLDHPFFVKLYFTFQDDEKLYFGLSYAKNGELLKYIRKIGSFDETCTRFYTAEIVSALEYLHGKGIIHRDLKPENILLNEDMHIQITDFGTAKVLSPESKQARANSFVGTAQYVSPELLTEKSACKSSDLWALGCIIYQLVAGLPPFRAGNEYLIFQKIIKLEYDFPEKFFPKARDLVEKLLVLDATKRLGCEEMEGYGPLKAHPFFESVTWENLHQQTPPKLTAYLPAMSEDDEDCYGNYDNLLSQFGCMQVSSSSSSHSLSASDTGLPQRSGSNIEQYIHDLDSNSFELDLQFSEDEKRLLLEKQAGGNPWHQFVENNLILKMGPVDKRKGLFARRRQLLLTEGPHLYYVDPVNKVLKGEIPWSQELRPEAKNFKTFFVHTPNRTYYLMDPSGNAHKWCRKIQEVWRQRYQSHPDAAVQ
Chain of Serine/threonine-protein kinase PAK 1 (Q13153 whole entry): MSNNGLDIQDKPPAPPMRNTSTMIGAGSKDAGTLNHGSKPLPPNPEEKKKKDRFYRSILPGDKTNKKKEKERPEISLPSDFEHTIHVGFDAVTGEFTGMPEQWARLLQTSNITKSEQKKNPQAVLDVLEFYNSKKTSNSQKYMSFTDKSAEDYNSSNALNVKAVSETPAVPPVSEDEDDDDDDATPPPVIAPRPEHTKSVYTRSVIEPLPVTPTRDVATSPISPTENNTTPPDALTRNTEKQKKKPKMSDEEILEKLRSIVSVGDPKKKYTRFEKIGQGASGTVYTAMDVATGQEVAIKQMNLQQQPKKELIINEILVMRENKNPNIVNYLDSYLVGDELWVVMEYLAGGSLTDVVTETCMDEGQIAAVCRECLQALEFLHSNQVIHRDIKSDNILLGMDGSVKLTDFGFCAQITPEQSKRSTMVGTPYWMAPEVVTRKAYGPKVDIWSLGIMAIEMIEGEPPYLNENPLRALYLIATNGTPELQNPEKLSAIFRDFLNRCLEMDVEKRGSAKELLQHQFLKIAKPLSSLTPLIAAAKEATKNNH

One may read the Ki as a measure of affinity in units of concentration, obtained from inhibition or displacement. On to `Nc1noc2cccc(-c3cccc(O)c3)c12`, for which the Ki in assay [1] was > 10 µM (inactive); in assay [2], > 7.94 µM (inactive); in assay [3], > 1.58 µM (inactive); in assay [4], 7.94 µM (active); in assay [5], > 3.98 µM (inactive); in assay [6] it was > 7.94 µM (inactive).
